# Experimental data published in patent publication US4985447A, “Certain benzoquinones, naphthoquinones and derivatives thereof which exhibit thromboxane A2 synthetase inhibition or receptor antagonism and the like” (Takeda Chemical Industries, Ltd., priority 1986, dated 1991).
# Several values for one entry are separate records, joined by “and”; a condition that tells them apart may be missing. Equal values may be shown once.
# Assays:
# [1] = Toxicological study in the rat; type: in vivo, rat (male Wistar); set-up: key to Spleen: Widening of red pulp / Spleen: Congestion (dilatation of sinus) / Spleen: Extramedullary hematopoiesis / Spleen: Atrophy of white pulp / Liver: Parenchymal cell alteration / Kidney: Dilatation of pelvis / Heart: Cardiac cell alteration / Lung: Alteration / Bone marrow: Proliferation of erythroblast: -: negative; +: mild; ++: moderate; +++: severe; details: for Adrenals weight / Body weight (B.V.) / Brains weight / Gonads weight / Heart weight / Hypophy. weight / Kidney weight / Liver weight / Lung weight / Spleen weight / Thymus weight / Thyroid weight / Bone marrow: Proliferation of erythroblast / Heart: Cardiac cell alteration / Kidney: Dilatation of pelvis / Liver: Parenchymal cell alteration / Lung: Alteration / Spleen: Atrophy of white pulp / Spleen: Congestion (dilatation of sinus) / Spleen: Extramedullary hematopoiesis / Spleen: Widening of red pulp: 2 weeks; for Adrenals weight / Body weight (B.V.) / Brains weight / Gonads weight / Heart weight / Hypophy. weight / Kidney weight / Liver weight / Lung weight / Spleen weight / Thymus weight / Thyroid weight: mean; for A/G ratio / AI.P / Albumin / Calcium / GOT / GPK / GPT / Glucose / Greatinine / LAP / LDH / Total bilirubin / Total cholesterol / Total protein / Urea nitrogen: mean ± S.D.
# Method: Procedure: Five weeks old, male Wistar rats were used. The rats were given the Compound 18 orally once a day for 14 days at doses of 100 and 300 mg/kg/10 ml of water as a suspension with 5% gum arabic. Control rats were given vehicle (10 ml/kg of water) alone. After fasting a night following the final dose of a 2 week treatment, the rats were anesthetized with ethyl ether and the blood was collected into a heparinized syringe from the abdominal aorta and the plasma was separated for the examination of blood chemistry. Blood parameters such as total protein, glucose, calcium, urea nitrogen, creatinine, total cholesterol, total bilirubin, alkaline phosphatase (ALP), leucine aminopeptidase (LAP), lactate dehydrogenase (LDH), glutamic oxaloacetic transaminase (GOT), glutamic pyruvic transaminase (GPT), creatine phosphokinase (CPK), albumin and A/G ratio were analysed by use of auto-analyzer (Hitachi 716). The organs such as liver, kidney, heart, lung, spleen, adrenal glands, thymus, testris, brain and hypophysis were excised and weighed. Some organs (liver, kidney, heart, lung, spleen) were fixed in 10% neutral formalin solution for histological examinations. Bone marrow was fixed as well without weighing. These fixed organs were stained with Hematoxyline-Eosin for histological examinations.
# [2] = Proteinuria improving effect in rat with adriamycin-induced nephrosis; type: in vivo, rat (Sprague-Dawley)
# Method: Procedure: The experiment was carried out with Sprague-Dawley rat (male, 5 weeks old) according to the method of T. Bertani et al.[(Laboratory Invest.4, 16, (1982)]. Adriamycin was given intravenously at the dose of 7.5 mg/kg and two weeks later urine was collected for 24 hours after water was loaded orally at 10 ml/kg. Total urinary protein and albumin excreted in the urine were determined; rats of which total urinary protein was 20 mg/100g/24 hours or more were chosen for the experiment. The control group received water (vehicle) alone at 10 ml/kg/day, and the Compound No.18 group received the Compound at the dose of 50 mg/kg/day (10 ml/kg, water) once a day for 2 weeks. After 1 week or 2 weeks of treatment with the drug, 24 hour-urine was collected to determine total urinary protein and albumin. Two weeks later blood was taken from the thoracic aorta of the rat under pentobarbital anesthesia (50 mg/kg, intraperitoneal injection) to determine plasma cholesterol level.
# [3] = Improving effect on glomerulonephritis in rat; type: in vivo, rat (Sprague-Dawley); details: for total urinary protein / urinary albumin: 50 mg/kg/day, p.o.
# Method: Procedure: Nephritic rat was prepared according to the method of Matsunaga et al.[Folia pharmacol. japon. 78, 491,(1981)]using Sprague-Dawley rat (male, 5 weeks old). That is, the rat was immunized preliminarily by subcutaneous injection of a mixture of 3 mg of rabbit serum albumin (RSA) and an equal volume of Freund's complete adjuvant, and from two weeks after that RSA was given intravenously at the dose of 1 mg/rat three times a week for 8 weeks. Then 24 hour-urine was collected to determine total urinary protein and urinary albumin. Rats of which total urinary protein was 20 mg/100g/24hr or more were chosen for the experiment. The control group received water (vehicle) alone at 10 ml/kg/day, and the Compound No.18 group received the Compound at the dose of 50 mg/kg/day (10 ml/kg, water) once a day for 2 weeks. After 1 week and 2 weeks of treatment, 24 hour-urine was collected to determine total urinary protein and urinary albumin.
# [4] = 100 mg/kg/day, single rats No. 7-10
# [5] = 300 mg/kg/day, single rats No. 11-15
# [6] = 50 mg/kg/day, p.o., 1 week after
# [7] = 50 mg/kg/day, p.o., 2 weeks after
# [8] = 50 mg/kg/day, p.o., before treatment
# [9] = 1 week after, *p<0.05 against pretreatment
# [10] = 2 weeks after, *p<0.05 against pretreatment
compound,measurement,setting,value
CC1=C(C)C(=O)C(Cc2cccnc2)=C(C)C1=O [Compound No. 18],Adrenals weight,[1]; 100 mg/kg orally,47.7 mg
same,Body weight (B.V.),[1]; 100 mg/kg orally,170.3 g
same,Brains weight,[1]; 100 mg/kg orally,1.747 g
same,Gonads weight,[1]; 100 mg/kg orally,1.906 g
same,Heart weight,[1]; 100 mg/kg orally,0.709 g
same,Hypophy. weight,[1]; 100 mg/kg orally,8.3 mg
same,Kidney weight,[1]; 100 mg/kg orally,1.579 g
same,Liver weight,[1]; 100 mg/kg orally,6.347 g
same,Lung weight,[1]; 100 mg/kg orally,0.872 g
same,Spleen weight,[1]; 100 mg/kg orally,0.673 g
same,Thymus weight,[1]; 100 mg/kg orally,0.45 g
same,Thyroid weight,[1]; 100 mg/kg orally,11.4 mg
same,Bone marrow: Proliferation of erythroblast,[1]; [4],-
same,Heart: Cardiac cell alteration,[1]; [4],-
same,Kidney: Dilatation of pelvis,[1]; [4],- (2×) and ++ and +
same,Liver: Parenchymal cell alteration,[1]; [4],-
same,Lung: Alteration,[1]; [4],-
same,Spleen: Atrophy of white pulp,[1]; [4],-
same,Spleen: Congestion (dilatation of sinus),[1]; [4],-
same,Spleen: Extramedullary hematopoiesis,[1]; [4],+
same,Spleen: Widening of red pulp,[1]; [4],-
same,A/G ratio,[1]; 100 mg/kg/day,1.65 ± 0.05
same,AI.P,[1]; 100 mg/kg/day,194 ± 32 U/I
same,Albumin,[1]; 100 mg/kg/day,3.43 ± 0.05 g %
same,Calcium,[1]; 100 mg/kg/day,9.84 ± 0.41 mg %
same,GOT,[1]; 100 mg/kg/day,57 ± 6 U/I
same,GPK,[1]; 100 mg/kg/day,44 ± 5 U/I
same,GPT,[1]; 100 mg/kg/day,13 ± 1 U/I
same,Glucose,[1]; 100 mg/kg/day,104 ± 11 mg %
same,Greatinine,[1]; 100 mg/kg/day,0.5 ± 0.0 mg %
same,LAP,[1]; 100 mg/kg/day,20 ± 1 U/I
same,LDH,[1]; 100 mg/kg/day,86 ± 22 U/I
same,Total bilirubin,[1]; 100 mg/kg/day,0.27 ± 0.03 mg %
same,Total cholesterol,[1]; 100 mg/kg/day,47 ± 7 mg %
same,Total protein,[1]; 100 mg/kg/day,5.51 ± 0.11 g %
same,Urea nitrogen,[1]; 100 mg/kg/day,15.8 ± 0.7 mg %
same,body weight (in words),[1]; 300 mg/kg,"tended to have a lower body weight, but the change was not significant"
same,splenomegaly (in words),[1]; 300 mg/kg,one of 5 rats showed a mild splenomegaly
same,Adrenals weight,[1]; 300 mg/kg orally,43.0 mg
same,Body weight (B.V.),[1]; 300 mg/kg orally,162.0 g
same,Brains weight,[1]; 300 mg/kg orally,1.714 g
same,Gonads weight,[1]; 300 mg/kg orally,1.873 g
same,Heart weight,[1]; 300 mg/kg orally,0.913 g
same,Hypophy. weight,[1]; 300 mg/kg orally,8.1 mg
same,Kidney weight,[1]; 300 mg/kg orally,1.508 g
same,Liver weight,[1]; 300 mg/kg orally,6.264 g
same,Lung weight,[1]; 300 mg/kg orally,0.929 g
same,Spleen weight,[1]; 300 mg/kg orally,0.703 g
same,Thymus weight,[1]; 300 mg/kg orally,0.447 g
same,Thyroid weight,[1]; 300 mg/kg orally,12.0 mg
same,extramedullary hematopoiesis (in words),"[1]; 300 mg/kg, one of 5 rats",increased extramedullary hematopoiesis
same,Bone marrow: Proliferation of erythroblast,[1]; [5],-
same,Heart: Cardiac cell alteration,[1]; [5],-
same,Kidney: Dilatation of pelvis,[1]; [5],- (4×) and +
same,Liver: Parenchymal cell alteration,[1]; [5],-
same,Lung: Alteration,[1]; [5],-
same,Spleen: Atrophy of white pulp,[1]; [5],- (4×) and +
same,Spleen: Congestion (dilatation of sinus),[1]; [5],-
same,Spleen: Extramedullary hematopoiesis,[1]; [5],+ (4×) and ++
same,Spleen: Widening of red pulp,[1]; [5],- (3×) and + (2×)
same,A/G ratio,[1]; 300 mg/kg/day,1.73
same,AI.P,[1]; 300 mg/kg/day,149 U/I
same,Albumin,[1]; 300 mg/kg/day,3.47 ± 0.13 g %
same,Calcium,[1]; 300 mg/kg/day,9.70 ± 0.18 mg %
same,GOT,[1]; 300 mg/kg/day,64 ± 9 U/I
same,GPK,[1]; 300 mg/kg/day,52 ± 9 U/I
same,GPT,[1]; 300 mg/kg/day,14 ± 1 U/I
same,Glucose,[1]; 300 mg/kg/day,97 ± 11 mg %
same,Greatinine,[1]; 300 mg/kg/day,0.4 ± 0.1 mg %
same,LAP,[1]; 300 mg/kg/day,19 ± 1 U/I
same,LDH,[1]; 300 mg/kg/day,99 ± 18 U/I
same,Total bilirubin,[1]; 300 mg/kg/day,0.28 ± 0.02 mg %
same,Total cholesterol,[1]; 300 mg/kg/day,41 ± 14 mg %
same,Total protein,[1]; 300 mg/kg/day,5.48 ± 0.20 g %
same,Urea nitrogen,[1]; 300 mg/kg/day,14.5 ± 0.6 mg %
same,blood chemistry (in words),[1]; 100 and 300 mg/kg,no changes in the blood chemistry
same,organ weight (in words),[1]; 100 and 300 mg/kg,no significant changes in any organ weight
same,histology of the other organs (in words),[1]; after 2 weeks,The other organs showed no changes
same,effect on adriamycin-induced nephrosis (in words),[2]; 50 mg/kg/day for 2 weeks,improves adriamycin-induced nephrosis
same,total urinary protein versus pretreatment value (in words),[2]; 50 mg/kg/day for 2 weeks,neither total urinary protein nor urinary albumin differed from the respective pretreatment values
same,urinary albumin versus pretreatment value (in words),[2]; 50 mg/kg/day for 2 weeks,neither total urinary protein nor urinary albumin differed from the respective pretreatment values
same,total urinary protein,[2]; [6],55 ± 17 mg/100 g/24 hr
same,urinary albumin,[2]; [6],25 ± 10
same,total urinary protein,[2]; [7],59 ± 9 mg/100 g/24 hr
same,urinary albumin,[2]; [7],31 ± 7
same,serum cholesterol,"[2]; 50 mg/kg/day, p.o., 2 weeks after, #p<0.05 against control",49 ± 4 mg/dL
same,total urinary protein,[2]; [8],76 ± 28 mg/100 g/24 hr
same,urinary albumin,[2]; [8],28 ± 14
same,serum cholesterol level (in words),"[2]; after 2 weeks, 50 mg/kg/day",decreased remarkably
same,effect on nephritis (in words),[3]; 50 mg/kg/day for 2 weeks,improves nephritis
same,total urinary protein compared with control group (in words),[3]; 50 mg/kg/day for 2 weeks,decreased total urinary protein
same,urinary albumin compared with control group (in words),[3]; 50 mg/kg/day for 2 weeks,decreased total urinary protein and urinary albumin
same,total urinary protein,[3]; [9],37 ± 8 mg/100 g/24 hr
same,urinary albumin,[3]; [9],17 ± 5
same,total urinary protein,[3]; [10],48 ± 16 mg/100 g/24 hr
same,urinary albumin,[3]; [10],24 + 12
same,total urinary protein,[3]; before treatment,75 ± 28 mg/100 g/24 hr
same,urinary albumin,[3]; before treatment,45 ± 21
